# Data published in patent US11547697B2, “Heterocyclic compounds and uses thereof” (MILLENNIUM PHARMACEUTICALS, INC., priority 2009, dated 2023).
# pIC50: −log10 of the molar value. Where two headings read alike, the source gives them in different places.
# Tests used:
# [1] = target: p110γ (Homo sapiens (Human), UniProt P48736); test: PI 3-Kinase (human) HTRF assay, p110γ; format: biochemical; details: read-out: PI3K γ IC50
# [2] = target: p110δ/p85α (Homo sapiens (Human), UniProt O00329); test: PI 3-Kinase (human) HTRF assay, p110δ/p85α; format: biochemical; details: read-out: PI3K δ IC50
# Sequence of p110δ/p85α (O00329 whole entry): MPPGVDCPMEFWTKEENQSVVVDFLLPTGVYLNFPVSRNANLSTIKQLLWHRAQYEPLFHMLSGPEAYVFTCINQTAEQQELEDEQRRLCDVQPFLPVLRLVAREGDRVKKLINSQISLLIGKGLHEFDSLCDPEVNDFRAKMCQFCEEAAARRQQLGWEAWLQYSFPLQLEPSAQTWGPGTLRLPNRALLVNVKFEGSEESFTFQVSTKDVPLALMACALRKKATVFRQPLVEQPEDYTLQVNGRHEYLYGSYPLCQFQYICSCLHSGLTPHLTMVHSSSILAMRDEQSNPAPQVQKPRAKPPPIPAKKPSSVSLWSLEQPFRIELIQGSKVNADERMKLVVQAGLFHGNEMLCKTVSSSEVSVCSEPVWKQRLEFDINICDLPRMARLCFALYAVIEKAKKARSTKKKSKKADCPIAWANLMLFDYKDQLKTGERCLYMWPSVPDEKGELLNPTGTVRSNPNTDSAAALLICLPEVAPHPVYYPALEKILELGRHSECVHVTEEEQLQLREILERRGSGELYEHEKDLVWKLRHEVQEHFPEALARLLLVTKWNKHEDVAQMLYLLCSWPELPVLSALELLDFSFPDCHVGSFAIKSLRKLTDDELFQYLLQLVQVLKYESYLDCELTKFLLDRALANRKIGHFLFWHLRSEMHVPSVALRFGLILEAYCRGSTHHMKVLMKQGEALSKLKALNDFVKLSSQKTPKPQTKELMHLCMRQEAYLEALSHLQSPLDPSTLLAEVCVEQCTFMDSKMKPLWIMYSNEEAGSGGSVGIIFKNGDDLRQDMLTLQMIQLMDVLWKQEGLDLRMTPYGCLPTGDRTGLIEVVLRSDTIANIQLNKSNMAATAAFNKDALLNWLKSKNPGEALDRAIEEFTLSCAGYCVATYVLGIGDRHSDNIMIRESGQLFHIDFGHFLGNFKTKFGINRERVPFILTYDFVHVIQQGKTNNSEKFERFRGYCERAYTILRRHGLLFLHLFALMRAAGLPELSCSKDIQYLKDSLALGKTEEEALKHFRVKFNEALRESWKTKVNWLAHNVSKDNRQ
# Sequence of p110δ/p85α (P27986 whole entry partner): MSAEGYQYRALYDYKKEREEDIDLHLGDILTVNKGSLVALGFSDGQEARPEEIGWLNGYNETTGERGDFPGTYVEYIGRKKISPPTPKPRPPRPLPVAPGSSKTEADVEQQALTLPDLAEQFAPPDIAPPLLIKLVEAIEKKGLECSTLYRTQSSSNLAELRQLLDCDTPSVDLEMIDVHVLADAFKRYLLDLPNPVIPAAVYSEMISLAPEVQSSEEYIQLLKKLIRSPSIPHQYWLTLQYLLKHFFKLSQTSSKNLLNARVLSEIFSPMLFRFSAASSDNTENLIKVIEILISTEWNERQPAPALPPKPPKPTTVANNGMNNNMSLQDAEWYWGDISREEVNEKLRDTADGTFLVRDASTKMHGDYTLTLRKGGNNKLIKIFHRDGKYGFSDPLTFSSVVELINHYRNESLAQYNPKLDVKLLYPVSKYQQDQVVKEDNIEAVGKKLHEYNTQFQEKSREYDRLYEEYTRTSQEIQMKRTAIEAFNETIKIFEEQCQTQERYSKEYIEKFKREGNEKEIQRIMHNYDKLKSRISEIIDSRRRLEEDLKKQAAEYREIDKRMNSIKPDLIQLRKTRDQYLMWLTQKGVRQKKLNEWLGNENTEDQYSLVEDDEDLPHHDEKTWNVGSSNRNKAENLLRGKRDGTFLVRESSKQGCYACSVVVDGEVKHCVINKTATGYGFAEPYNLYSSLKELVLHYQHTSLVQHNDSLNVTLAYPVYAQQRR
# [3] = target: p110β/p85α (Homo sapiens (Human), UniProt P42338); test: PI 3-Kinase (human) HTRF assay, p110β/p85α; format: biochemical; details: read-out: PI3K β IC50
# Sequence of p110β/p85α (P42338 whole entry): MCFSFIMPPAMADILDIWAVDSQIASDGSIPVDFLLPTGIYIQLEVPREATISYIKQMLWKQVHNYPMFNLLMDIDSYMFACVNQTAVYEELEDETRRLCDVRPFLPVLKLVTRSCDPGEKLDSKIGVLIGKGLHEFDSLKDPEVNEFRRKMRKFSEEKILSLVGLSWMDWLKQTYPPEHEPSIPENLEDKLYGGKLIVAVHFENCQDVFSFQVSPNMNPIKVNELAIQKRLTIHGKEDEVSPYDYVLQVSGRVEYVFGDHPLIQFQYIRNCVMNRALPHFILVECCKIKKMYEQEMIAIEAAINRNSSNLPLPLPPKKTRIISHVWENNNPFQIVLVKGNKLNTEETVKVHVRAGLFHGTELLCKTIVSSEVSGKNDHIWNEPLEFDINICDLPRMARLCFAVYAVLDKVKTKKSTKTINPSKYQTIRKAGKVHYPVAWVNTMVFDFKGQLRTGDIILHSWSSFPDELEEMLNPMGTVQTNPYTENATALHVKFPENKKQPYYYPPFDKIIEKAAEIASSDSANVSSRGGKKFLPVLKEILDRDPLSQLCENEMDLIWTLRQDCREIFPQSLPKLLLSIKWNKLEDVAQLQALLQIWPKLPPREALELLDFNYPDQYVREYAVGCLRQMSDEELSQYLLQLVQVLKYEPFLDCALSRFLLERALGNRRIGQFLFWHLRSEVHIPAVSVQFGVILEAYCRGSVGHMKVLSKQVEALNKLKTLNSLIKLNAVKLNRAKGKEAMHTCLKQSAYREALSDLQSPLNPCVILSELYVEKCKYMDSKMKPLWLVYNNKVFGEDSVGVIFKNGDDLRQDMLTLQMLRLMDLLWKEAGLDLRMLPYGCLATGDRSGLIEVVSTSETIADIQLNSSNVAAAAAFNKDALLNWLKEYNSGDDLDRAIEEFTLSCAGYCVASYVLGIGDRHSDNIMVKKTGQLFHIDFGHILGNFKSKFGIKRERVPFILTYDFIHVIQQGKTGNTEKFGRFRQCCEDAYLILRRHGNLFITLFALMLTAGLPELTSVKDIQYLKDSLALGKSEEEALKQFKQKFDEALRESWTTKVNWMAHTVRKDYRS
# Sequence of p110β/p85α (P27986 whole entry partner): as the sequence (P27986 whole entry partner) above
# [4] = target: p110α/p85α (Homo sapiens (Human), UniProt P42336); test: PI 3-Kinase (human) HTRF assay, p110α/p85α; format: biochemical; details: read-out: PI3K α IC50
# Sequence of p110α/p85α (P42336 whole entry): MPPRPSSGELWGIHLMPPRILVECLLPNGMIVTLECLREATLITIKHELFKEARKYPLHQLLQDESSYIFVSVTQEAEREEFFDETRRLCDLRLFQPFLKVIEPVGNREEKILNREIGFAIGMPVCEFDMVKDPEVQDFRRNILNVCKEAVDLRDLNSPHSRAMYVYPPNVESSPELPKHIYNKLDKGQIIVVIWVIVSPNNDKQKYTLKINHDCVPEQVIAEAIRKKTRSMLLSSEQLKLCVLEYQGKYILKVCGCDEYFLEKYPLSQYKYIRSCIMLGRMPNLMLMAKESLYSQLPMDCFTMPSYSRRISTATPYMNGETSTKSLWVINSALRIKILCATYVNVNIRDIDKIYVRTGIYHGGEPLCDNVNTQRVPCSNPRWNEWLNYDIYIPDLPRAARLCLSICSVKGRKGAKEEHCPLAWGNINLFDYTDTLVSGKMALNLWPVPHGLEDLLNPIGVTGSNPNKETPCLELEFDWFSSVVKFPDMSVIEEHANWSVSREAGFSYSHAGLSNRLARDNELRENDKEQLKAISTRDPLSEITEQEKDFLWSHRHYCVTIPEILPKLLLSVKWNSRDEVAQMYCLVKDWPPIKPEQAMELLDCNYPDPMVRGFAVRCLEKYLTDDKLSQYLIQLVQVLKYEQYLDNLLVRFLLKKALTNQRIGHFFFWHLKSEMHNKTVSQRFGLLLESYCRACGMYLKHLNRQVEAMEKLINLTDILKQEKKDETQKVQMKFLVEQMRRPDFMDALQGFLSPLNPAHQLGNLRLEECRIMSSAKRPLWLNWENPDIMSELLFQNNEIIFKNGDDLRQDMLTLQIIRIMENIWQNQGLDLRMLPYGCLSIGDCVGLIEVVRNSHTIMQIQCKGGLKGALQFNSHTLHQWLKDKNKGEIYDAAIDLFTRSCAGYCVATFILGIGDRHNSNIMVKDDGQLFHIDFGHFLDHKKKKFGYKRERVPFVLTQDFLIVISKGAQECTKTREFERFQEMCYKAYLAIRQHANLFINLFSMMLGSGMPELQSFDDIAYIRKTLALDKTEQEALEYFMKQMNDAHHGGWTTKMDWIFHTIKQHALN
# Sequence of p110α/p85α (P27986 whole entry partner): as the sequence (P27986 whole entry partner) above
# [5] = tested on: tumor cells with a PI3Kα mutation (e.g., MDA-MB-361 and T47D); test: Proliferation of tumor cells with PI3Kα mutation; format: cell-based; details: Homo sapiens, T47D cells
# [6] = read-out: T47D proliferation IC50
# Sequence of p110γ (P48736 whole entry): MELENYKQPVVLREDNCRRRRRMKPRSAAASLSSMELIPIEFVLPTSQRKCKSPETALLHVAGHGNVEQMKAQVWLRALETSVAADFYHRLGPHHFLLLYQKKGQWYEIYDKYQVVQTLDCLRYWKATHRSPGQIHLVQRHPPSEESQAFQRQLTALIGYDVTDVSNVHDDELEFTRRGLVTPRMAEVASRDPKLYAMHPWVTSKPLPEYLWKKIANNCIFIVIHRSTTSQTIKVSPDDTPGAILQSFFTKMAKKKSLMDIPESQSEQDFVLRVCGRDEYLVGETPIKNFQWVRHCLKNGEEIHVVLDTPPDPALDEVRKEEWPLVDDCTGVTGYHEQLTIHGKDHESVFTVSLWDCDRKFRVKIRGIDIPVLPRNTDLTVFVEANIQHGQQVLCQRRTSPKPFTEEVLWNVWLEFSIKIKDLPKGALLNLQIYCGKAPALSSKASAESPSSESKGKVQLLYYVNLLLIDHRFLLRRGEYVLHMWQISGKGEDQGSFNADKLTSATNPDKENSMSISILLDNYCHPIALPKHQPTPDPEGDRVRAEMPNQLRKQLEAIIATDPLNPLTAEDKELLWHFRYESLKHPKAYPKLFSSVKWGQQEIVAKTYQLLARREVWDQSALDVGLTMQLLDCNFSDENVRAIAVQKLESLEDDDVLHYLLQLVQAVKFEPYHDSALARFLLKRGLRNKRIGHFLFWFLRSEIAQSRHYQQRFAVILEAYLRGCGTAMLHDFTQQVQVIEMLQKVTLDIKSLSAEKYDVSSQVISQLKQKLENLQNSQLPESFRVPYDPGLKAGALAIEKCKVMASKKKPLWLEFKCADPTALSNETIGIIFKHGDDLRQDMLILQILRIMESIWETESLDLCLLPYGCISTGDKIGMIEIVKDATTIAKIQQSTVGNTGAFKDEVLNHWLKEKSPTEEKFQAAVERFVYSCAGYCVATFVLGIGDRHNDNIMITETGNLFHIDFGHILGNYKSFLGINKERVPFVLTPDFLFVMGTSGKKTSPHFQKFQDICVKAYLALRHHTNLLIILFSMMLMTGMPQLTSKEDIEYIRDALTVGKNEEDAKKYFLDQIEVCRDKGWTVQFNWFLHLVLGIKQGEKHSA
Compound,pIC50 [1],pIC50 [2],pIC50 [3],pIC50 [4],pIC50 ([5]; read-out: T47D proliferation),pIC50 ([1]; in vitro),pIC50 ([2]; in vitro),pIC50 ([3]; in vitro),pIC50 ([4]; in vitro),"pIC50 [5, 6]"
Nc1nc2cc(-c3ccc4ncc(N5CCC(O)CC5)nc4c3)ccc2o1 [compound 99],> 6.00,> 6.00,> 5.00,> 7.00,> 5.00,–,–,–,–,–
Nc1nc2cc(-c3ccc4ncc(N5CCN(CCO)CC5)nc4c3)ccc2o1 [compound 100],> 6.00,> 5.00,> 7.00,> 7.00,> 6.00,–,–,–,–,–
CC(C)N1CCC(Nc2ncnc3ccc(-c4ccc5oc(N)nc5c4)cc23)CC1 [compound 101],> 5.00,> 6.00,> 5.00,> 7.00,> 5.00,–,–,–,–,–
CN(C)CC(=O)N1CCC(Nc2ncnc3ccc(-c4ccc5oc(N)nc5c4)cc23)CC1 [compound 103],> 6.00,> 6.00,> 6.00,> 7.00,> 5.00,–,–,–,–,–
Nc1nc2cc(-c3ccc4ncc(N5CCN(C(=O)[C@@H]6CCCN6)CC5)nc4c3)ccc2o1 [compound 121],> 7.00,> 7.00,> 7.00,> 7.00,> 6.00,–,–,–,–,–
Nc1nc2cc(-c3ccc4ncc(NCCN5CCOCC5)nc4c3)ccc2o1 [compound 133],> 6.00,> 6.00,> 6.00,> 7.00,> 5.00,–,–,–,–,–
CC(N)C(=O)N1CCN(c2cnc3ccc(-c4ccc5oc(N)nc5c4)cc3n2)CC1 (centres unmarked) [compound 134],> 5.00,> 6.00,> 6.00,> 7.00,> 6.00,–,–,–,–,–
CC(=O)N1CCC(N(C)c2ncnc3ccc(-c4ccc5oc(N)nc5c4)cc23)CC1 [compound 137],> 6.00,> 6.00,> 6.00,> 7.00,> 6.00,–,–,–,–,–
CN(C)CC(=O)N1CCN(c2cnc3ccc(-c4ccc5oc(N)nc5c4)cc3n2)CC1 [compound 139],> 6.00,> 6.00,> 6.00,> 7.00,> 6.00,–,–,–,–,–
CCN1CCN(c2cnc3ccc(-c4ccc5oc(N)nc5c4)cc3n2)CC1 [compound 152],> 6.00,> 5.00,> 7.00,> 7.00,> 5.00,–,–,–,–,–
Nc1nc2cc(-c3ccc4ncc(N5CCN(CC6CC6)CC5)nc4c3)ccc2o1 [compound 153],> 6.00,> 6.00,> 7.00,> 7.00,> 6.00,–,–,–,–,–
CNC(=O)N1CCN(c2cnc3ccc(-c4ccc5oc(N)nc5c4)cc3n2)CC1 [compound 154],> 7.00,> 5.00,> 6.00,> 7.00,> 6.00,–,–,–,–,–
CN1CC(C(=O)N2CCN(c3cnc4ccc(-c5ccc6oc(N)nc6c5)cc4n3)CC2)C1 [compound 156],> 6.00,> 6.00,> 6.00,> 7.00,> 6.00,–,–,–,–,–
CN1CCC(NC(=O)c2cnc3ccc(-c4ccc5oc(N)nc5c4)cn23)CC1 [compound 159],> 6.00,> 7.00,> 6.00,> 7.00,> 5.00,–,–,–,–,–
Nc1nc2cc(-c3ccc4ncc(N5CCC(N6CCOCC6)CC5)nc4c3)ccc2o1 [compound 171],> 6.00,> 6.00,> 6.00,> 7.00,> 6.00,–,–,–,–,–
CC1CN(c2cnc3ccc(-c4ccc5oc(N)nc5c4)cc3n2)CCO1 (centres unmarked) [compound 173],> 7.00,> 5.00,> 6.00,> 7.00,> 5.00,–,–,–,–,–
Cc1nccn1-c1cnc2ccc(-c3ccc4oc(N)nc4c3)cc2n1 [compound 174],> 7.00,> 5.00,> 6.00,> 7.00,> 5.00,–,–,–,–,–

# The remaining lines, values ahead:
pIC50 [1],pIC50 [2],pIC50 [3],pIC50 [4],pIC50 ([5]; read-out: T47D proliferation),pIC50 ([1]; in vitro),pIC50 ([2]; in vitro),pIC50 ([3]; in vitro),pIC50 ([4]; in vitro),"pIC50 [5, 6]",Compound
> 7.00,> 6.00,> 6.00,> 7.00,> 6.00,–,–,–,–,–,Nc1nc2cc(-c3ccc4ncc(N5CCCC5)nc4c3)ccc2o1 [compound 176]
> 5.00,> 5.00,> 6.00,> 7.00,> 5.00,–,–,–,–,–,C[C@@H]1CN(c2cnc3ccc(-c4ccc5oc(N)nc5c4)cc3n2)CCN1 [compound 179]
> 7.00,> 6.00,> 5.00,> 7.00,> 5.00,–,–,–,–,–,CS(=O)(=O)CCN1CCC(Nc2cnc3ccc(-c4ccc5oc(N)nc5c4)cc3n2)CC1 [compound 181]
> 6.00,> 6.00,> 6.00,> 7.00,> 5.00,–,–,–,–,–,CC(C)(C)N1CCN(c2cnc3ccc(-c4ccc5oc(N)nc5c4)cc3n2)CC1 [compound 182]
> 7.00,> 5.00,> 5.00,> 7.00,> 5.00,–,–,–,–,–,CCn1cnc2ccc(-c3ccc4oc(N)nc4c3)cc2c1=O [compound 183]
> 7.00,> 6.00,> 5.00,> 7.00,> 5.00,–,–,–,–,–,Nc1nc2cc(-c3ccc4ncc(C(=O)N5CCCC5)n4c3)ccc2o1 [compound 186]
> 7.00,> 6.00,> 5.00,> 7.00,> 6.00,–,–,–,–,–,Nc1nc2cc(-c3ccc4ncc(C(=O)NC5CC5)n4c3)ccc2o1 [compound 187]
> 7.00,> 6.00,> 6.00,> 7.00,> 6.00,–,–,–,–,–,CCNC(=O)c1cnc2ccc(-c3ccc4oc(N)nc4c3)cn12 [compound 188]
> 6.00,> 6.00,> 6.00,> 7.00,> 6.00,–,–,–,–,–,Nc1nc2cc(-c3ccc4ncc(C(=O)NCCO)n4c3)ccc2o1 [compound 189]
–,–,–,–,–,> 7.00,> 5.00,> 5.00,> 7.00,> 5.00,Nc1nc2cc(-c3ccc4ncc(C(=O)N5CC(O)C5)n4c3)ccc2o1 [compound 200]
–,–,–,–,–,> 6.00,> 5.00,> 5.00,> 7.00,> 6.00,Nc1nc2cc(-c3ccc4ncc(C(=O)N5CCC(O)C5)n4c3)ccc2o1 (centres unmarked) [compound 202]
–,–,–,–,–,> 7.00,> 6.00,> 7.00,> 7.00,> 6.00,C[C@H](N)C(=O)N1CCN(c2cnc3ccc(-c4ccc5oc(N)nc5c4)cc3n2)CC1 [compound 207]
–,–,–,–,–,> 5.00,> 6.00,> 6.00,> 7.00,> 5.00,C[C@@H](N)C(=O)N1CCN(c2cnc3ccc(-c4ccc5oc(N)nc5c4)cc3n2)CC1 [compound 208]
–,–,–,–,–,> 7.00,> 5.00,> 6.00,> 7.00,> 5.00,Nc1nc2cc(-c3ccc4ncc(N5CCC(O)C5)nc4c3)ccc2o1 (centres unmarked) [compound 209]
–,–,–,–,–,> 7.00,> 7.00,> 7.00,> 7.00,> 6.00,CC(=O)N1CCC(Nc2ncnc3ccc(-c4ccc5oc(N)nc5c4)nc23)CC1 [compound 211]
–,–,–,–,–,> 6.00,> 6.00,> 6.00,> 7.00,> 6.00,CN1CCC(Nc2ncnc3ccc(-c4ccc5oc(N)nc5c4)nc23)CC1 [compound 212]
–,–,–,–,–,> 6.00,> 5.00,> 6.00,> 5.00,> 5.00,Nc1nc2cc(-c3ccc4sc(N)nc4c3)ccc2o1 [compound 248]
–,–,–,–,–,> 5.00,> 5.00,> 5.00,> 7.00,> 5.00,Nc1nc2cc(-c3ccc4ncc(C(=O)N5CCN(C6CC6)CC5)n4c3)ccc2o1 [compound 263]
–,–,–,–,–,> 6.00,> 5.00,> 5.00,> 7.00,> 6.00,Nc1nc2cc(-c3ccc4ncc(C(=O)N5CC[C@H](O)C5)n4c3)ccc2o1 [compound 264]
–,–,–,–,–,> 7.00,> 5.00,> 5.00,> 7.00,> 6.00,Nc1nc2cc(-c3ccc4ncc(C(=O)N5CC[C@@H](O)C5)n4c3)ccc2o1 [compound 265]
–,–,–,–,–,> 6.00,> 6.00,> 5.00,> 7.00,> 5.00,Nc1nc2cc(-c3ccc4ncc(C(=O)N5CC(N6CCOCC6)C5)n4c3)ccc2o1 [compound 266]
–,–,–,–,–,> 6.00,> 5.00,> 5.00,> 7.00,> 6.00,C[C@H]1CN(C(=O)C2CN(c3cnc4ccc(-c5ccc6oc(N)nc6c5)cc4n3)C2)CCN1 [compound 268]
–,–,–,–,–,> 5.00,> 6.00,> 6.00,> 7.00,> 5.00,CC(C)[C@H](N)C(=O)N1CCN(c2cnc3ccc(-c4ccc5oc(N)nc5c4)cc3n2)CC1 [compound 269]
–,–,–,–,–,> 6.00,> 6.00,> 6.00,> 7.00,> 6.00,CN1CCN(CCNc2cnc3ccc(-c4ccc5oc(N)nc5c4)cc3n2)CC1 [compound 275]
–,–,–,–,–,> 6.00,> 5.00,> 6.00,> 7.00,> 6.00,Nc1nc2cc(-c3ccc4ncc(N5CCN(C(=O)CN6CCCC6)CC5)nc4c3)ccc2o1 [compound 278]
–,–,–,–,–,> 5.00,> 5.00,> 5.00,> 7.00,> 6.00,CCN(CC)CC(=O)N1CCN(c2cnc3ccc(-c4ccc5oc(N)nc5c4)cc3n2)CC1 [compound 279]
